Measured values taken from US4476117A, “Dimers of peptide amides” (Imperial Chemical Industries PLC, priority 1982, dated 1984).
Numbered stars: 1 amine (or outer) side, 2 acyl side, 3 side chain; on linkers, the order of the positions; unused ones are H or OH. Bridge positions count the residues as written; N and C are the ends. Peptide text beside a SMILES is read from it. I, II: the chains in the order shown. * marks the point of attachment. Tyr(Nα,Nα-allyl2) = C=CCN(CC=C)[C@@H](Cc1ccc(O)cc1)C(=O)*; Ethylenediamine = C(CN[*:2])N[*:1]

Test: tolerance in the rat, subcutaneous dose
Format: in vivo
Experimental: As an indication of the lack of toxicity of a specific compound of the invention, namely [diallyl-Tyr-Gly-Gly-Phe-Leu-NH-CH2 -]2, that compound is tolerated in the rat at a subcutaneous dose of at least 15 mg./kg.

Compound: C=CCN(CC=C)[C@@H](Cc1ccc(O)cc1)C(=O)NCC(=O)NCC(=O)N[C@@H](Cc1ccccc1)C(=O)N[C@@H](CC(C)C)C(=O)NCCNC(=O)[C@H](CC(C)C)NC(=O)[C@H](Cc1ccccc1)NC(=O)CNC(=O)CNC(=O)[C@H](Cc1ccc(O)cc1)N(CC=C)CC=C [Example 1, (diallyl-Tyr-Gly-Gly-Phe-Leu-NH-CH2 -)2 bis-trifluoroacetate] (I: {Tyr(Nα,Nα-allyl2)}-GGFL / II: {Tyr(Nα,Nα-allyl2)}-GGFL; linker I:C-II:C via Ethylenediamine)
- tolerated subcutaneous dose: at least 15 mg./kg.
